# Reference: patent US20250368639A1, “SOLID FORMS OF A COMPOUND FOR TREATING OR PREVENTING HYPERURICEMIA OR GOUT” (ATOM THERAPEUTICS CO., LTD, priority 2022, published 2025)
# Tests used:
# Type in all cases: physicochemical
# [1] = Solid state stability under stress conditions (XRPD, HPLC); details: for XRPD pattern after stress storage: closed vial about 60° C., closed vial about 40° C./75% RH, 1 week and 2 weeks
# Procedure: Form 1. Form 2, Form 6, Form 8, and Form 11 were each placed under following stress conditions: (1) in a closed vial at a temperature of about 60° C., and (2) in a closed vial at a temperature of about 40′° C. and a humidity of about 75% RH. The solids were analyzed with XRPD at 1 week and 2 weeks intervals.
# Additionally, all forms were analyzed with HPLC for impurity at the 1 week and 2 weeks intervals. In a typical analysis, about 5 mg of forms were each dissolved in 10 ml of diluents with the aid of sonication for 2 minutes. THF was used as the diluent for Form 1, and methanol was used as the diluent for Form 6, Form 8, and Form 11. The HPLC analysis utilized Agilent Eclipse XDB-C18 4.6*150 mm. 3.5 μm at 30° C., a mobile phase of a gradient between 0.1% H3PO4 and acetonitrile (9:1 to 2:8 to 9:1), an injection volume of 10 μl, a flow rate of 1.0 ml/min, and a detection wavelength of 214 nm.
# Form 2 was further subject to the stability test in an open vial at 40° C. and a relative humidity of 75% RH.
# [2] = Solubility in water, buffers and bio-relevant media (37° C., 24 h shaking, HPLC); details: 37° C., 24 h
# Procedure: The solubility of Form 1, Form 2, Form 5D, Form 6, Form 8, and Form 11 was analyzed in water, 0.1NaqueousHCl, pH4.5 acetate buffer solution, pH6.8 phosphate buffer solution, simulated gastric fluid (SGF), Fasted State Simulated Intestinal Fluid (FaSSIF), and Fed State Simulated Intestinal Fluid (FeSSIF).
# About 5 mg or 10 mg of sample was weighed out into each vial and mixed with about 5 ml of medium to form a solution. The target concentration for the potassium salt in water was 2 mg/ml; and the target concentration for all other forms were 1 mg/mL. All samples were kept shaking at 200 rounds per minute (rpm) under 37° C. for 24 hours. The pH value of these samples were determined after shaking for 24 hours. Subsequently, they were centrifuged at the speed of 12000 rpm for 2 mins. The supernatant was diluted with methanol as necessary, and the concentrations were determined by HPLC. When the solubility of potassium salt was tested in water, the supernatant was diluted 100 times, while no other samples were diluted. The HPLC analysis utilizes Agilent Eclipse XDB-C8 4.6*150 mm, 5 μm column at 40° C., a mobile phase of 0.1% TFA: ACN=70:30, an injection volume of 10 μl, a flow rate of 1.0 ml/min, a diluent of methanol, and a detection wavelength of 234 nm.
# [3] = Suspensions for animal formulation in 0.5% CMC-Na (XRPD); details: about 30 mg in 30 ml, sonication
# Procedure: About 30 mg of Form 1, Form 2, and Form 5D were each added into a respective 40 ml glass bottle and mixed with 30 ml of 0.5% CMC-Na solution. The solids were dispersed uniformly in the solution with the aid of sonication. After that, the solids were isolated by centrifugation, dried at room temperature, and the dry solid analyzed with XRPD.
Structure (SMILES),XRPD pattern after stress storage [1],Solubility ([2]; 0.1N HCl) [µg/mL],Solubility in the buffer solution and bio-relevant medium [2],Solubility ([2]; FaSSIF) [µg/mL],Solubility ([2]; FeSSIF) [µg/mL],Solubility ([2]; SGF) [µg/mL],Solubility ([2]; Water) [µg/mL],Solubility ([2]; pH 4.5 acetate buffer) [µg/mL],Solubility ([2]; pH 6.8 phosphate buffer) [µg/mL],Crystal form after dispersion in 0.5% CMC-Na solution (XRPD) [3],"XRPD after storage in an open vial ([1]; open vial, 40° C., 75% RH)",Highest concentration among the media [2]
"CCc1nc2ccccn2c1C(=O)c1cc(Br)c(O)c(C#N)c1 [Form 1, 3-bromo-5-[(2-ethylimidazo[1,2-a]pyridin-3-yl)carbonyl]-2-hydroxybenzonitrile]",substantially similar to those received at the initial time,5.0,low solubilities,16.6,1.9,2.9,9.4,1.0,19.8,did not change,–,–
"CCc1nc2ccccn2c1C(=O)c1cc(Br)c(O)c(C#N)c1 [Form 2, 3-bromo-5-[(2-ethylimidazo[1,2-a]pyridin-3-yl)carbonyl]-2-hydroxybenzonitrile]",substantially similar to those received at the initial time,3.8,low solubilities,41.8,2.8,3.0,20.0,<1,24.1,transformed into Form 1,significant changes at the end of ninth day,around 40 μg/ml
